# Data as given in patent US9738932B2, “Biomarkers for cardiovascular side-effects induced by cox-2 inhibitory compounds” (FIRALIS SAS, priority 2005, dated 2017).
# System: mRNA expression in cardiovascular tissues
# Experiment: Affymetrix GeneChip mRNA expression profiling of monkey tissues (iliac vein, pulmonary vein, aorta, carotid artery, heart) after two-week oral-gavage treatment
# Settings: iliac vein; group avg, Vioxx without A60055
structure (smiles),measurement,value
"Cc1ccc(Nc2c(F)cccc2Cl)c(CC(=O)O)c1 [COX189, Lumiracoxib]",HFE (211329_x_at) avg fold change vs control,0.9 fold
same,HFE (211332_x_at) avg fold change vs control,1.1 fold
same,HFE (211863_x_at) avg fold change vs control,1.3 fold
same,HFE (211866_x_at) avg fold change vs control,1.2 fold
same,HHL (203020_at) avg fold change vs control,1.0 fold
same,HLA-A (211528_x_at) avg fold change vs control,1.3 fold
same,HLA-A (211529_x_at) avg fold change vs control,1.3 fold
same,HLA-A (211530_x_at) avg fold change vs control,1.6 fold
same,HLA-A (215313_x_at) avg fold change vs control,1.3 fold
same,HLA-B (208729_x_at) avg fold change vs control,1.3 fold
same,HLA-B (209140_x_at) avg fold change vs control,1.2 fold
same,HLA-B (211911_x_at) avg fold change vs control,1.3 fold
same,HLA-C (208812_x_at) avg fold change vs control,1.1 fold
same,HLA-C (214459_x_at) avg fold change vs control,1.2 fold
same,HLA-C (216526_x_at) avg fold change vs control,1.4 fold
same,HLA-DMA (217478_s_at) avg fold change vs control,1.2 fold
same,HLA-DMB (203932_at) avg fold change vs control,1.2 fold
same,HLA-DQA1 (212671_s_at) avg fold change vs control,1.6 fold
same,HLA-DQB1 (209823_x_at) avg fold change vs control,1.0 fold
same,HLA-DQB1 (211654_x_at) avg fold change vs control,1.8 fold
same,HLA-DQB1 (211656_x_at) avg fold change vs control,1.3 fold
same,HLA-DQB2 (212998_x_at) avg fold change vs control,1.4 fold
same,HLA-DRA (208894_at) avg fold change vs control,1.2 fold
same,HLA-DRA (210982_s_at) avg fold change vs control,1.1 fold
same,HLA-DRB1 (215193_x_at) avg fold change vs control,1.5 fold
same,HLA-DRB3 (209312_x_at) avg fold change vs control,1.3 fold
same,HLA-DRB6 (217362_x_at) avg fold change vs control,1.3 fold
same,HLA-E (200905_x_at) avg fold change vs control,1.2 fold
same,HLA-E (217456_x_at) avg fold change vs control,1.4 fold
same,HLA-F (204806_x_at) avg fold change vs control,1.2 fold
same,HLA-F (221875_x_at) avg fold change vs control,1.2 fold
same,ICAM1 (202638_s_at) avg fold change vs control,0.9 fold
same,ICAM1 (215485_s_at) avg fold change vs control,1.0 fold
same,ICSBP1 (204057_at) avg fold change vs control,1.2 fold
same,IFI27 (202411_at) avg fold change vs control,4.2 fold
same,IFI30 (201422_at) avg fold change vs control,1.1 fold
same,IFI44 (214453_s_at) avg fold change vs control,2.0 fold
same,IFIT1 (203153_at) avg fold change vs control,1.1 fold
same,IFIT2 (217502_at) avg fold change vs control,1.4 fold
same,IFIT4 (204747_at) avg fold change vs control,0.9 fold
same,IFITM2 (201315_x_at) avg fold change vs control,1.2 fold
same,IFITM3 (212203_x_at) avg fold change vs control,1.0 fold
same,IGF1 (209541_at) avg fold change vs control,0.9 fold
same,IGFBP4 (201508_at) avg fold change vs control,0.6 fold
same,IL1A (208200_at) avg fold change vs control,1.6 fold
same,IL2RG (204116_at) avg fold change vs control,1.3 fold
same,IL27RA (205926_at) avg fold change vs control,1.1 fold
same,INDO (210029_at) avg fold change vs control,1.2 fold
same,INPP5D (203332_s_at) avg fold change vs control,1.2 fold
same,IRF1 (202531_at) avg fold change vs control,1.3 fold
same,IRF7 (208436_s_at) avg fold change vs control,1.6 fold
same,ISGF3G (203882_at) avg fold change vs control,1.5 fold
same,ITGB2 (202803_s_at) avg fold change vs control,1.0 fold
same,JAK1 (214377_s_at) avg fold change vs control,1.1 fold
same,KLKB1 (206541_at) avg fold change vs control,1.0 fold
same,LAIR1 (208071_s_at) avg fold change vs control,1.1 fold
same,LCK (204890_s_at) avg fold change vs control,1.4 fold
same,LCP2 (205270_s_at) avg fold change vs control,1.2 fold
same,LILRB1 (207857_at) avg fold change vs control,0.7 fold
same,LILRB1 (211100_x_at) avg fold change vs control,1.0 fold
same,LILRB3 (208594_x_at) avg fold change vs control,1.0 fold
same,LILRB3 (210225_x_at) avg fold change vs control,1.1 fold
same,LRMP (204674_at) avg fold change vs control,1.6 fold
same,LY86 (205859_at) avg fold change vs control,0.9 fold
same,LY96 (206584_at) avg fold change vs control,1.0 fold
same,LYN (210754_s_at) avg fold change vs control,0.8 fold
same,MAF (209348_s_at) avg fold change vs control,0.9 fold
same,PCOLCE (202465_at) avg fold change vs control,0.8 fold
same,PLA2G4C (209785_s_at) avg fold change vs control,1.4 fold
same,PLCL2 (216217_at) avg fold change vs control,0.9 fold
same,PLSCR1 (202446_s_at) avg fold change vs control,1.0 fold
same,PRC1 (218009_s_at) avg fold change vs control,1.0 fold
same,PRG1 (201858_s_at) avg fold change vs control,0.9 fold
same,PRG1 (201859_at) avg fold change vs control,0.9 fold
same,PTPN22 (206060_s_at) avg fold change vs control,1.2 fold
same,PTPRC (207238_s_at) avg fold change vs control,1.1 fold
same,SOCS3 (206360_s_at) avg fold change vs control,1.0 fold
same,STAT1 (209969_s_at) avg fold change vs control,1.4 fold
same,STAT1 (AFFX-HUMISGF3A/M97935_5_at) avg fold change vs control,1.6 fold
same,STAT1 (AFFX-HUMISGF3A/M97935_MA_at) avg fold change vs control,1.2 fold
same,STAT1 (AFFX-HUMISGF3A/M97935_MB_at) avg fold change vs control,1.9 fold
same,TAPBP (208829_at) avg fold change vs control,1.1 fold
same,TCTEL1 (201999_s_at) avg fold change vs control,0.9 fold
same,TLR1 (210176_at) avg fold change vs control,0.8 fold
same,TLR2 (204924_at) avg fold change vs control,0.8 fold
same,TNFAIP3 (202643_s_at) avg fold change vs control,1.2 fold
same,TNFAIP3 (202644_s_at) avg fold change vs control,1.3 fold
same,TNFSF6 (210865_at) avg fold change vs control,1.3 fold
same,TNFSF10 (202687_s_at) avg fold change vs control,1.2 fold
same,TNFSF10 (202688_at) avg fold change vs control,1.2 fold
same,TRGC2 (211144_x_at) avg fold change vs control,1.3 fold
same,TRGC2 (216920_s_at) avg fold change vs control,1.1 fold
same,VCAM1 (203868_s_at) avg fold change vs control,0.9 fold
same,XCL1 (206366_x_at) avg fold change vs control,1.7 fold
same,XCL1 (214567_s_at) avg fold change vs control,1.3 fold
same,XLKD1 (219059_s_at) avg fold change vs control,1.0 fold
same,cig5 (213797_at) avg fold change vs control,1.8 fold
